Data taken from patent publication US10023610B2, “Ligands for prevention of neurotoxicity of the alzheimer's disease related amyloid-beta peptide” (AlphaBeta AB, priority 2014, dated 2018).
Entries after “also recorded” stand apart in the source; their conditions may differ. Each block holds one compound with its values, some of them ahead of it.

What was measured:
Aβ1-42 [1] = target: T1, Aβ1-42 (Homo sapiens, UniProt P05067); assay: Electron microscopy of fibril formation from Aβ1-42 in the presence of ligands; assay type: biochemical; settings: Aβ1-42 5 μM with 5 or 25 μM ligand, 37° C., 9 hours
T1 construct: Samples of Aβ1-42 peptide (5 μM) alone or mixed with 5 or 25 μM of each ligand
T1 sequence (P05067 672-713 limits assumed): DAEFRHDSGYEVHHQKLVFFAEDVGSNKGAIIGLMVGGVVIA
Experimental: Samples of Aβ1-42 peptide (5 μM) alone or mixed with 5 or 25 μM of each ligand in a volume of 100 μl, were incubated at 37° C. for 9 hours. Aliquotes of 2 μl were taken from the different samples, adsorbed on copper grids and negatively stained with 2.5% uranyl acetate in 50% ethanol. The samples were examined and photographed using a Hitachi H7100 microscope operated at 75 kV.

[2] = tested on: kainate-induced gamma oscillations; assay: Control: ligands alone on kainate-induced gamma oscillations in hippocampal slices (absence of Aβ); assay type: cell-based, C57BL/6 mice
Experimental: (§1) Experiments were carried out in accordance with ethical permit granted by Norra Stockholms Djurförsöksetiska Nämnd to AF (N45/13). C57BL/6 mice of either sex (postnatal days 14-23, supplied from Charles River, Germany) were used in all experiments. The animals were deeply anaesthetized using isofluorane before being sacrificed by decapitation.
(§2) The brain was dissected out and placed in ice-cold ACSF (artificial cerebrospinal fluid) modified for dissection. This solution contained (in mM); 80 NaCl, 24 NaHCO3, 25 Glucose, 1.25 NaH2PO4, 1 Ascorbic acid, 3 NaPyruvate, 2.5 KCl, 4 MgCl2, 0.5 CaCl2, 75 Sucrose. Horizontal sections (350 μm thick) of the ventral hippocampi of both hemispheres were prepared with a Leica VT1200S vibratome (Microsystems, Stockholm, Sweden). Immediately after slicing sections were transferred to a submerged incubation chamber containing standard ACSF (in mM): 124 NaCl, 30 NaHCO3, 10 Glucose, 1.25 NaH2PO4, 3.5 KCl, 1.5 MgCl2, 1.5 CaCl2. The chamber was held at 34° C. for at least 20 minutes after dissection. It was subsequently allowed to cool to ambient room temperature (19-22° C.) for a minimum of 40 minutes. Peptides were added to the incubation solution 15 minutes before transferring slices to the interface-style recording chamber. While incubating slices were continuously supplied with carbogen gas (5% CO2, 95% O2) bubbled into the ACSF. Chemical compounds used in intracellular and extracellular solutions were obtained from Sigma-Aldrich Sweden AB (Stockholm, Sweden). The Kainic acid was obtained from Tocris.
(§3) Recordings were carried out in hippocampal area CA3 with borosilicate glass microelectrodes, pulled to a resistance of 3-7 MO. Local field potentials (LFP) were recorded at 34° C. using microelectrodes filled with ACSF placed in stratum pyramidale. LFP oscillations were elicited by applying kainic acid (100 nM) to the extracellular bath. The oscillations were allowed to stabilize for 20 minutes before any recordings were carried out. LFP recordings were performed with a 4 channel amplifier/signal conditioner M102-amplifier (Electronics lab, Faculty of Mathematics and Natural Sciences, University of Cologne, Cologne, Germany). The signals were sampled at 10 kHz, conditioned using a Hum Bug 50 Hz noise eliminator (Quest Scientific, North Vancouver, BC, Canada), software low-pass filtered at 1 kHz, digitized and stored using a Digidata 1322A and Clampex 9.6 software (Molecular devices, CA, USA).
(§4) Power spectral density plots (from 60 s long LFP recordings) were calculated in averaged Fourier-segments of 8192 points using Axograph X (Kagi, Berkeley, Calif., USA). Oscillation power was calculated by integrating the power spectral density between 20 and 80 Hz. Data is reported as means±standard errors of the means in the text and as median and upper/lower quartile in the figure box plots. For statistical analysis the Mann-Whitney U-test was used.

Aβ1-42 [3] = target: T1, Aβ1-42; assay: Prevention of Aβ-induced decrease of kainate-induced gamma oscillations in hippocampal slices (LFP, area CA3); assay type: cell-based, C57BL/6 mice
Experimental: as §1, §2, §3, §4

[4] = 50 nM ligand, equimolar (1:1) to 50 nM Aβ1-42, 15 min incubation
[5] = 250 nM ligand with 50 nM Aβ, 15 min incubation

SMILES: CCCCCCCCCC(=O)NCCNC[C@H](N)C(=O)N[C@H](Cc1c[nH]c2ccccc12)C(=O)NCC[C@@H](NC(=O)CCCC(=O)O)C(=O)O [DH18, (R)—N^4—[N^2—(N^3—(N-decanoyl-2-aminoethyl)-(S)-2,3-diaminopropionyl)-D-tryptophanyl]-N^2-glutanoyl-2,4-diaminobutanoic acid]
effect of ligand alone on kainate-induced gamma oscillations [2]: no effect

SMILES: CCCCCCCCCC(=O)NCCNC[C@H](N)C(=O)N[C@H](CCN1C(=O)c2cccc3c(N(C)C)ccc(c23)C1=O)C(=O)NCC[C@@H](NC(=O)CCCC(=O)O)C(=O)O [DH18_Dmn, HO-Gla-D-Dab-(COOH)-D-DMNA-L-Dap-(NH2)-AE-decanoyl]
fibril formation by Aβ1-42 (electron microscopy) (Aβ1-42 [1]): less fibrils
effectiveness in preventing Aβ-induced degradation of network gamma oscillations compared with first generation ligands (Aβ1-42 [3]): more effective than first generation ligands
prevention of the Aβ-induced decrease of kainate-induced gamma oscillations (Aβ1-42 [3]; [4]): complete prevention; also recorded: effective also at only a 1:1 ratio; also recorded: reverse Aβ-induced reduction of gamma oscillation; also recorded: prevention of Aβ-induced degradation of network gamma oscillations
effect of ligand alone on kainate-induced gamma oscillations [2]: neither of these ligands had an effect

SMILES: NC(=O)CCCCCCCCCCC(=O)NCCNC[C@H](N)C(=O)N[C@H](Cc1c[nH]c2ccccc12)C(=O)NCC[C@@H](NC(=O)CCCC(=O)O)C(=O)O [DH20, (R)—N^4—[N^2—(N^3—(N-(12-amino-12-oxododecanoyl)-2-aminoethyl)-(S)-2,3-diaminopropionyl)-D-tryptophanyl]-N^2-glutanoyl-2,4-diaminobutanoic acid]
fibril formation by Aβ1-42 (electron microscopy) (Aβ1-42 [1]): less fibrils
effectiveness in preventing Aβ-induced degradation of network gamma oscillations compared with first generation ligands (Aβ1-42 [3]): more effective than first generation ligands
prevention of the Aβ-induced decrease of kainate-induced gamma oscillations (Aβ1-42 [3]; [4]): complete prevention
prevention of the Aβ-induced decrease of kainate-induced gamma oscillations (Aβ1-42 [3]; 50 nM ligand, equimolar (1:1) to 50 nM Aβ1-42, 15 min incubation, listed as DH-20): effective also at only a 1:1 ratio; also recorded: reverse Aβ-induced reduction of gamma oscillation
prevention of the Aβ-induced decrease of kainate-induced gamma oscillations (Aβ1-42 [3]; [5]): complete prevention; also recorded: reverses Aβ-induced reduction of gamma oscillation
effect of ligand alone on kainate-induced gamma oscillations [2]: neither of these ligands had an effect; also recorded: no effect

Further lines, with some results ahead:

fibril formation by Aβ1-42 (electron microscopy) (Aβ1-42 [1]): less fibrils
SMILES: CCCCCCCC[C@H](N)CNCC[C@H](N)C(=O)N[C@H](CCN1C(=O)c2cccc3c(N(C)C)ccc(c23)C1=O)C(=O)NCC[C@@H](NC(=O)CCCC(=O)O)C(=O)O [8AEDabDmnDabGla, HO-Gla-D-Dab-(COOH)-D-DMNA-L-Dap-(NH2)—CH2CH(NH2)—C8]

prevention of the Aβ-induced decrease of kainate-induced gamma oscillations (Aβ1-42 [3]; [5]): higher prevention
SMILES: CCCCCCCCCC(=O)NCCNCCN [Dec-DETA, reference compound]
effect of ligand alone on kainate-induced gamma oscillations [2]: neither of these ligands had an effect

prevention of the Aβ-induced decrease of kainate-induced gamma oscillations (Aβ1-42 [3]; [5]): only partial prevention
SMILES: N=C(N)CCNCCCC(N)C(=O)NC(Cc1c[nH]c2ccccc12)C(=O)NCCC(NC(=O)CCCC(=O)O)C(=O)O (centres unmarked) [Pep1b, reference compound]
fibril formation by Aβ1-42 (electron microscopy) (Aβ1-42 [1]): fibrils were formed but to somewhat lesser extent
effect of ligand alone on kainate-induced gamma oscillations [2]: neither of these ligands had an effect
